From US11318141B2, “Methods and compositions related to STK1-targeted small molecules as antibiotic resistance breakers” (Ohio State Innovation Foundation, priority 2017, dated 2022)

Key:
S. aureus MW2 wild-type = experiment: Checkerboard titration end-point bactericidal assay (MBC), Muller-Hinton agar; type: cell-based, Staphylococcus aureus; conditions: agent alone
Method: FIGS. 15A-15B show checkerboard assays for determining bactericidal assay. Serial two-fold dilutions of 2 mM of Inh2-B1 (MW=411.58 g/mol) and (A) 3 mM ceftriaxone (MW=669.7 g/mol) were made in two separate 96-well plates in vertical (B1-B12 to H1-H2 wells) and horizontal (A2-H2 to A12-H12 wells) directions respectively. Serially diluted Inh2-B1 (100 μL) in the individual well was then mixed with the 100 μL serially diluted ceftriaxone present in the corresponding wells. The resulting various combinations of Inh2-B1 (starting from 1 mM) and ceftriaxone (starting from 1.5 mM) or cefotaxime (2.1 mM) as well as serially diluted one Inh2-B1 (B1 to H1) and ceftriaxone (A2-A12) or cefotaxime (A2-A12) were then incorporated in Muller-Hinton mini agar plates (2 mL). The agar plates were then seeded and diluted S. aureus MW2-wild-type culture equivalent to approximately 23±3 CFU. This checkerboard assay was used to determine the ideal combination of lowest concentration of Inh2-B1 and ceftriaxone that kills 99.9% of the wild-type MW2.
Since the STK1 is not essential for bacterial survival and its absence results in retardation of growth, an end-point bactericidal assay was done, employing the Checkerboard titration method followed by a time-to-kill assay using the broth dilution method. The 96-well plate-based checkerboard titration assays were performed using the fixed number of CFUs of MW2 strain, and the survival of the bacteria was measured on solid agar plates as an end-point result. […] The cut-off value to designate clinical isolates of S. aureus for antibiotics, including Ceftriaxone (TX) and Cefotaxime (CT) as susceptible, is less than 4 μg/ml (i.e., <4.8 μM of TX, and <7 μM of CT). […] CFU counts of MW2-WT grown in the presence of various concentrations of Inh2-B1 were examined over a period of 16 h. […] Similarly, it was also determined CFU counts of MW2-WT and MW2ΔSTK1 strains each grown in the absence or the presence of 50 μM of Inh2-B1 and 1.5 μM Ceftriaxone (1 μg/ml) or […] Cefotaxime (1 μg/ml) for 16 h employing the broth dilution method. […] Further, to address whether MW2 or STK1 could become refractory to a potential combined therapy, the S. aureus MW2 wild-type strain was grown in the presence of suboptimal dose of Inh2-B1 alone and combination with Ceftriaxone and Cefotaxime (25 μM Inh2-B1 and 3 μM of Ceftriaxone or 3 μM Cefotaxime) for consecutive 10 generations.
(§1) Subsequently, the susceptibility of S. aureus MW2 strain to Ceftriaxone, Cefotaxime, Inh2, and Inh2-B1 was confirmed by the CLSI recommended serial dilution method using Muller Hinton broth. Minimum bactericidal activity (MBC) was measured using Muller-Hinton agar. Changes in the MBC of Ceftriaxone/Cefotaxime in the presence of serially diluted Inh2-B1 was determined in two steps. Initial screening was carried out using the Checkerboard method using Muller-Hinton agar (FIG. 15). […] Subsequent time to kill assays were carried out using 50 μM Inh2-B1 and Ceftriaxone. Cefotaxime (1 μg/ml) in a final volume of 250 μl using a sterile 96-well (U-bottom) microtiter plate over a period of 16 h at 37° C. under constant rotation (120 rpm). Optical density and corresponding CFU counts were measured at every two-hour interval up to 8 hours with a final overnight reading at the end of incubation period. CFU counts were measured using appropriate dilution of 10 μl of properly mixed samples at each time interval.

S. aureus MW2 = experiment: Broth dilution susceptibility / growth inhibition assay, Muller Hinton broth; type: cell-based, Staphylococcus aureus; conditions: growth inhibition of S. aureus MW2
Method: as §1, with “interval. All experiments were performed in three biological replicates and the statistical analysis of the results obtained at each time point was carried out by the non-parametric t-test with Welch's correction using GraphPad Prism 6 software.” for “interval.”

[1] = biological target: S. aureus STKK1 (the soluble kinase domain of STK1, 280 aa) (Staphylococcus aureus, UniProt A0ABF7PGK0); experiment: In vitro kinase assay: inhibition of autophosphorylation of recombinant STKK1 (γ32P-ATP); type: biochemical; conditions: after 5 min pre-incubation
Method: For the present study, recombinant His-tag-STKK1 was created along with part of the adjacent juxta-membrane domain (1-280 aa) using the pET14b vector system and specific primers (Table-1 and Table-2) as described previously. The recombinant proteins were expressed in BL21 DE3 (pLysS) and purified using Ni^+2-NTA-affinity chromatography, dialyzed against 10 mM Tris/HCl, pH 7.5, and stored as 10% glycerol stock (500 μg/ml) at −20° C. as described previously. In vitro kinase assays were performed using 2 μg STKK1 in the presence of 1 μCi γ^32P-ATP (specific activity 3000 Ci/mMol, PerkinElmer) at 30° C. for 45 min in a final volume of 30 μl phosphorylation buffer (50 mM Tris/HCl, pH7.5, 1 mM dithiothreitol, 5 mM MgCl2, and/or 5 mM MnCl2). The inhibition of autophosphorylation of STKK1 was carried out using this assay in the presence and absence of (50 μM) individual members of the 32 prescreened small molecule compound library. Phosphorylated proteins were separated by SDS-PAGE and subsequently identified by using Coomassie stain and autoradiography. The individual phosphorylated protein bands were then excised and subjected to radioactive counting using beta-scintillation counter for quantitative analysis. Experiments were repeated at least three times for statistical analysis.

Sequence of S. aureus STKK1 (the soluble kinase domain of STK1, 280 aa) (A0ABF7PGK0 entry or part of it): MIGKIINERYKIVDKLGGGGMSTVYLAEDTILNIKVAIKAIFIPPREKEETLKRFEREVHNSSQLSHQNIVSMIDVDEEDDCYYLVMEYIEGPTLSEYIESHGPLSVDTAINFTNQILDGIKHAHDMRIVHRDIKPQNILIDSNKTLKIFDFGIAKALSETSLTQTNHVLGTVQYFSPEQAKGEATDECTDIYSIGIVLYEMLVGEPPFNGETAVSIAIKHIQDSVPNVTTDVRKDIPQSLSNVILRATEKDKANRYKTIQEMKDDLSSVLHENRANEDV

COC(=O)c1ccc2c(=O)[nH]c3c(C(=O)Nc4ccccc4)sc(=S)n3c2c1 [Inh2-B1, Methyl 5-oxo-3-(phenylcarbamoyl)-1-thioxo-4,5dihydro[1,3]thiazolo[3,4-a]quinazoline-8-carboxylate]
MBC (S. aureus MW2 wild-type; Staphylococcus aureus, MW2WILDTYPE, MW2, read-out: Minimum bactericidal concentration (MBC)): 100 µM | concentration up to which growth of MW2 was seen (S. aureus MW2 wild-type; further analysis): 90 µM | concentration of wells with ≥1 CFU of wild-type MW2 (S. aureus MW2 wild-type; checkerboard): ≤ 50 µM | concentration at which S. aureus MW2 still grows (S. aureus MW2): > 50 µM | IC50 [1]: 49 µM
